In patent US12410160B2 (Gilead Sciences, Inc., priority 2021, dated 2025):

Tests used:
human KHK-C = human KHK-C (Homo sapiens (Human), UniProt P50053); assay: KHK Biochemical Assay (IC50), ADP-Glo, KHK-C; settings: ADP-Glo; average of at least two separate assays
Method in brief: (§1)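 ADP-Glo luminescence measured ADP made over a 4 h room-temperature reaction of ATP plus fructose, started after 30 min compound–enzyme pre-incubation. Buffer: 50 mM Hepes pH 7.4, 140 mM KCl, 5 mM MgCl2, 0.01% Triton-X. Enzyme was His-tagged, BL21 (DE3)-expressed, Ni-NTA-purified; compounds in 1:3 DMSO dilution series.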

human KHK-A = human KHK-A (Homo sapiens (Human), UniProt P50053); assay: KHK Biochemical Assay (IC50), ADP-Glo, KHK-A; settings: ADP-Glo; average of at least two separate assays
human KHK-A, sequence (P50053 other isoform, or with tags, fused parts or gaps): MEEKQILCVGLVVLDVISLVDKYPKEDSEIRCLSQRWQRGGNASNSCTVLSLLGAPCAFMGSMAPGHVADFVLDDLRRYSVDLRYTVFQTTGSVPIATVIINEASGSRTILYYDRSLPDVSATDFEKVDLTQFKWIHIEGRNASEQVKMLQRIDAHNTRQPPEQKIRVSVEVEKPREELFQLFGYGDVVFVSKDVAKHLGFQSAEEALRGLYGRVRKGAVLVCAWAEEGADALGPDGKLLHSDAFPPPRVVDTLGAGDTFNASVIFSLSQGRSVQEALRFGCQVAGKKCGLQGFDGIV
Method in brief: as §1

[1] = molecular target: KHK-C expressed in NRK-52E cells (Homo sapiens (Human), UniProt P50053); assay: KHK-C Cell-based Assay (EC50), NRK CTG, fructose-mediated ATP-depletion
KHK-C expressed in NRK-52E cells, sequence (P50053 whole entry): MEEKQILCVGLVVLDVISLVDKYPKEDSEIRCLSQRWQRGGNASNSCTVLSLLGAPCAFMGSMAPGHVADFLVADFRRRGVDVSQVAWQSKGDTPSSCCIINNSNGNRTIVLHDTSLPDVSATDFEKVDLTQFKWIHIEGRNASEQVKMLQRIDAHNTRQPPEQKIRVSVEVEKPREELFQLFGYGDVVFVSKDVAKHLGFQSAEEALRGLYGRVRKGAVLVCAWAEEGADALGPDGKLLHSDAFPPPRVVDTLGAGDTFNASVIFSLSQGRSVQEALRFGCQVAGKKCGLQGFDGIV

human KHK-C, sequence (P50053 whole entry): as above

| SMILES | IC50 (human KHK-C) | IC50 (human KHK-A) | EC50 [1] |
| --- | --- | --- | --- |
| C[C@H]1CCN1c1nc2c(c(-c3ccc(C4(NC(=O)OC(C)(C)C)CCC4)cc3)n1)CCC2 [Example 311, (S)-tert-butyl (1-(4-(2-(2-methylazetidin-1-yl)-6,7-dihydro-5H-cyclopenta[d]pyrimidin-4-yl)phenyl)cyclobutyl)carbamate] | > 5 µM | > 5 µM | 0.915 µM |
| C[C@H]1CCN1c1nc2c(c(-c3ccc(C#N)c(Cl)c3)n1)CCC2 [Example 314, (S)-2-chloro-4-(2-(2-methylazetidin-1-yl)-6,7-dihydro-5H-cyclopenta[d]pyrimidin-4-yl)benzonitrile] | 1.94 µM | 2.02 µM | 4.49 µM |
| C[C@H]1CCN1c1nc2c(c(-c3cc(F)c(C(N)=O)c(F)c3)n1)CCC2 [Example 315, (S)-2,6-difluoro-4-(2-(2-methylazetidin-1-yl)-6,7-dihydro-5H-cyclopenta[d]pyrimidin-4-yl)benzamide] | 0.034 µM | 0.0315 µM | 0.0573 µM |
| C[C@H]1CCN1c1nc2c(c(-c3ccc(C(N)=O)c(C(F)(F)F)c3)n1)CCC2 [Example 316, (S)-4-(2-(2-methylazetidin-1-yl)-6,7-dihydro-5H-cyclopenta[d]pyrimidin-4-yl)-2-(trifluoromethyl)benzamide] | 0.0429 µM | 0.019 µM | 0.035 µM |
| C[C@H]1CCN1c1nc(-c2cccc(S(N)(=O)=O)c2)c2c(n1)C(F)(F)CC2 [Example 321, (S)-3-(7,7-difluoro-2-(2-methylazetidin-1-yl)-6,7-dihydro-5H-cyclopenta[d]pyrimidin-4-yl)benzenesulfonamide] | 0.0044 µM | 0.0048 µM | 0.0073 µM |
| C[C@H]1CCN1c1nc(-c2cccc(CNS(C)(=O)=O)c2)c2c(n1)C(F)(F)CC2 [Example 323, (S)—N-(3-(7,7-difluoro-2-(2-methylazetidin-1-yl)-6,7-dihydro-5H-cyclopenta[d]pyrimidin-4-yl)benzyl)methanesulfonamide] | 0.0042 µM | 0.0047 µM | 0.0161 µM |
| CNCc1cccc(-c2nc(N3CC[C@@H]3C)nc3c2CCC3)c1 [Example 330, N-methyl-1-[3-[2-[(2S)-2-methylazetidin-1-yl]-6,7-dihydro-5H-cyclopenta[d]pyrimidin-4-yl]phenyl]methanamine] | 0.0192 µM | 0.0224 µM | 0.0131 µM |
| C[C@H]1CCN1c1nc2c(c(-c3cccc(CN(C)C)c3)n1)CCC2 [Example 346, N,N-dimethyl-1-[3-[2-[(2S)-2-methylazetidin-1-yl]-6,7-dihydro-5H-cyclopenta[d]pyrimidin-4-yl]phenyl]methanamine] | 0.0147 µM | 0.0167 µM | 0.0275 µM |
| CC(=O)Nc1ccc(-c2nc(N3CC[C@@H]3C)nc3c2CCC3)cc1 [Example 355, N-[4-[2-[(2S)-2-methylazetidin-1-yl]-6,7-dihydro-5H-cyclopenta[d]pyrimidin-4-yl]phenyl]acetamide] | 0.0727 µM | 0.0333 µM | 0.0924 µM |
| C[C@H]1CCN1c1nc2c(c(-c3ccc(CN4CCC4)cc3)n1)CCC2 [Example 366, 4-[4-(azetidin-1-ylmethyl)phenyl]-2-[(2S)-2-methylazetidin-1-yl]-6,7-dihydro-5H-cyclopenta[d]pyrimidine] | 0.0865 µM | 0.054 µM | 0.0754 µM |
| C[C@H]1CCN1c1nc2c(c(-c3ccc(CO)c(F)c3)n1)CCC2 [Example 370, [2-fluoro-4-[2-[(2S)-2-methylazetidin-1-yl]-6,7-dihydro-5H-cyclopenta[d]pyrimidin-4-yl]phenyl]methanol] | 0.0817 µM | 0.0763 µM | 0.117 µM |
| C[C@H]1CCN1c1nc2c(c(-c3ccc(CO)cc3)n1)CCC2 [Example 374, [4-[2-[(2S)-2-methylazetidin-1-yl]-6,7-dihydro-5H-cyclopenta[d]pyrimidin-4-yl]phenyl]methanol] | 0.0404 µM | 0.0478 µM | 0.0735 µM |
| C[C@H]1CCN1c1nc2c(c(-c3ccc(CO)s3)n1)CCC2 [Example 375, [5-[2-[(2S)-2-methylazetidin-1-yl]-6,7-dihydro-5H-cyclopenta[d]pyrimidin-4-yl]-2-thienyl]methanol] | 0.0182 µM | 0.0303 µM | 0.084 µM |
| Cc1nc2cc(-c3nc(N4CC[C@@H]4C)nc4c3CCC4)ccc2c(=O)[nH]1 [Example 387, 2-methyl-7-[2-[(2S)-2-methylazetidin-1-yl]-6,7-dihydro-5H-cyclopenta[d]pyrimidin-4-yl]-3H-quinazolin-4-one] | 0.0099 µM | 0.0056 µM | 0.0196 µM |
| C[C@H]1[C@H](O)CN1c1nc2c(c(-c3ccc4cnc(O)cc4c3)n1)CCC2 [Example 388, 6-[2-[(2S,3R)-3-hydroxy-2-methyl-azetidin-1-yl]-6,7-dihydro-5H-cyclopenta[d]pyrimidin-4-yl]isoquinolin-3-ol] | 0.0813 µM | 0.0877 µM | 0.403 µM |

The remaining compounds from weak to strong by IC50 (human KHK-C), led by results:

| IC50 (human KHK-C) | IC50 (human KHK-A) | EC50 [1] | SMILES |
| --- | --- | --- | --- |
| 1.31 µM | 1.31 µM | 1.13 µM | C[C@H]1CCN1c1nc(-c2ccccc2)c2c(n1)[C@@H]1C[C@@H]1C2 [Example 333, (5aR,6aR)-2-((S)-2-methylazetidin-1-yl)-4-phenyl-5,5a,6,6a-tetrahydrocyclopropa[4,5]cyclopenta[1,2-d]pyrimidine] |
| 1.15 µM | 1.03 µM | 2.08 µM | C[C@H]1CCN1c1nc2c(c(-c3ccc(C#N)c(F)c3)n1)CCC2 [Example 313, (S)-2-fluoro-4-(2-(2-methylazetidin-1-yl)-6,7-dihydro-5H-cyclopenta[d]pyrimidin-4-yl)benzonitrile] |
| 0.555 µM | 0.449 µM | 1.81 µM | COc1cc(-c2nc(N3CC[C@@H]3C)nc3c2CCC3)ccc1C#N [Example 310, (S)-2-methoxy-4-(2-(2-methylazetidin-1-yl)-6,7-dihydro-5H-cyclopenta[d]pyrimidin-4-yl)benzonitrile] |
| 0.244 µM | 0.21 µM | 0.638 µM | C[C@H]1CCN1c1nc2c(c(-c3ccc(C(N)=O)c(NS(C)(=O)=O)c3)n1)CCC2 [Example 320, (S)-4-(2-(2-methylazetidin-1-yl)-6,7-dihydro-5H-cyclopenta[d]pyrimidin-4-yl)-2-(methylsulfonamido)benzamide] |
| 0.0975 µM | 0.13 µM | 0.294 µM | C[C@H]1[C@H](O)CN1c1nc2c(c(-c3ccc(C(N)=O)c(Cl)c3)n1)CCC2 [Example 308] |
| 0.0906 µM | 0.0793 µM | 0.305 µM | C[C@H]1CCN1c1nc2c(c(-c3cccc(CN4CCOCC4)c3)n1)CCC2 [Example 349, 4-[[3-[2-[(2S)-2-methylazetidin-1-yl]-6,7-dihydro-5H-cyclopenta[d]pyrimidin-4-yl]phenyl]methyl]morpholine] |
| 0.0451 µM | 0.0126 µM | 0.0537 µM | C[C@H]1CCN1c1nc2c(c(-c3cccc(CN4CCCCC4)c3)n1)CCC2 [Example 345, 2-[(2S)-2-methylazetidin-1-yl]-4-[3-(1-piperidylmethyl)phenyl]-6,7-dihydro-5H-cyclopenta[d]pyrimidine] |
| 0.0279 µM | 0.0523 µM | 0.0373 µM | C[C@H]1CCN1c1nc2c(c(-c3ccc(C(C)(C)O)s3)n1)CCC2 [Example 376, 2-[5-[2-[(2S)-2-methylazetidin-1-yl]-6,7-dihydro-5H-cyclopenta[d]pyrimidin-4-yl]-2-thienyl]propan-2-ol] |
| 0.0227 µM | 0.0242 µM | 0.0351 µM | C[C@H]1CCN1c1nc2c(c(-c3cccc(CN4CCCC4)c3)n1)CCC2 [Example 348, 2-[(2S)-2-methylazetidin-1-yl]-4-[3-(pyrrolidin-1-ylmethyl)phenyl]-6,7-dihydro-5H-cyclopenta[d]pyrimidine] |
| 0.0211 µM | 0.0269 µM | 0.0929 µM | C[C@H]1[C@H](O)CN1c1nc2c(c(-c3ccc(CNS(C)(=O)=O)s3)n1)CCC2 [Example 377, N-[[5-[2-[(2S,3R)-3-hydroxy-2-methyl-azetidin-1-yl]-6,7-dihydro-5H-cyclopenta[d]pyrimidin-4-yl]-2-thienyl]methyl]methanesulfonamide] |
| 0.0209 µM | 0.025 µM | 0.0373 µM | CCOc1cc(-c2nc(N3CC[C@@H]3C)nc3c2CCC3)ccc1C(N)=O [Example 319, (S)-2-ethoxy-4-(2-(2-methylazetidin-1-yl)-6,7-dihydro-5H-cyclopenta[d]pyrimidin-4-yl)benzamide] |
| 0.0193 µM | 0.0168 µM | 0.014 µM | C[C@H]1CCN1c1nc2c(c(-c3cccc(CN4CC(O)C4)c3)n1)CCC2 [Example 350, 1-[[3-[2-[(2S)-2-methylazetidin-1-yl]-6,7-dihydro-5H-cyclopenta[d]pyrimidin-4-yl]phenyl]methyl]azetidin-3-ol] |
| 0.019 µM | 0.0272 µM | 0.0293 µM | C[C@H]1CCN1c1nc2c(c(-c3ccc(CN4CC(O)C4)cc3)n1)CCC2 [Example 365, 1-[[4-[2-[(2S)-2-methylazetidin-1-yl]-6,7-dihydro-5H-cyclopenta[d]pyrimidin-4-yl]phenyl]methyl]azetidin-3-ol] |
| 0.0174 µM | 0.019 µM | 0.0158 µM | COc1cc(-c2nc(N3CC[C@@H]3C)nc3c2CCC3)ccc1C(N)=O [Example 309, (S)-2-methoxy-4-(2-(2-methylazetidin-1-yl)-6,7-dihydro-5H-cyclopenta[d]pyrimidin-4-yl)benzamide] |
| 0.0147 µM | 0.0029 µM | 0.0197 µM | C[C@H]1CCN1c1nc2c(c(-c3cc4c(=O)[nH]ccc4s3)n1)CCC2 [Example 384, 2-[2-[(2S)-2-methylazetidin-1-yl]-6,7-dihydro-5H-cyclopenta[d]pyrimidin-4-yl]-5H-thieno[3,2-c]pyridin-4-one] |
